Patent US20030129222A1, “Liposomal imexon” (priority 2000, published 2003)
Where two headings read alike, the source gives them in different places.

What was measured:
[1] = system: fresh human tumor-colony-forming cells; experiment: Human tumor cloning assay, eight tumor cell types together; assay type: cell-based
Procedure: (§1) Assays of antitumor agents against fresh human tumor-colony-forming cells provide results that predict better the responses obtained in treating cancer patients than those obtained with long established human cell lines (Salmon et al., 1981). For this reason, the N-phenyl derivative 13 was tested against a variety of fresh human tumors obtained at the Arizona Cancer Center using established methodology (Salmon and Hersh, 1994).

[2] = system: Other Gynecologic (cloned fresh human tumors); experiment: Human tumor cloning assay, [3H]thymine uptake by tumor-colony-forming cells; assay type: cell-based; conditions: No. tested 4
Procedure: as §1

[3] = system: Melanoma (cloned fresh human tumors); experiment: as above; assay type: cell-based; conditions: No. tested 10
Procedure: as §1

[4] = system: Myeloma (cloned fresh human tumors); experiment: as above; assay type: cell-based; conditions: No. tested 3
Procedure: as §1

[5] = system: Breast (cloned fresh human tumors); experiment: as above; assay type: cell-based; conditions: No. tested 4
Procedure: as §1

[6] = system: Stomach (cloned fresh human tumors); experiment: as above; assay type: cell-based; conditions: No. tested 1
Procedure: as §1

[7] = system: Ovary (cloned fresh human tumors); experiment: as above; assay type: cell-based; conditions: No. tested 12
Procedure: as §1

[8] = system: Sarcoma (cloned fresh human tumors); experiment: as above; assay type: cell-based; conditions: for no. sensitive: Sarcoma, No. tested 8
Procedure: as §1

[9] = system: Lung (cloned fresh human tumors); experiment: as above; assay type: cell-based; conditions: No. tested 2
Procedure: as §1

[10] = substituent constant, from Hansch and Leo or calculated using Clog P software; cited from earlier work
L1210 leukemia, Mdr = experiment: Cytotoxicity in tumor cell culture, MTT assay; assay type: cell-based, murine; conditions: Mus musculus
Description: (§2) Relative potencies of the N-substituted 2-cyanoaziridine-1-carboxamides in a panel of tumor cell cultures are compared in Table 3. This panel includes the following lines of human tumor cells: sensitive and imexon-resistant lines of multiple myeloma (Matsuoka et al., 1967); ovarian carcinoma resistant to standard drugs (Hamilton et al., 1984); melanoma with a slow growth fraction (Girard et al., 1973); breast carcinoma including sensitive, doxorubicin-resistant (P-glycoprotein-positive) (Taylor et al., 1991), and mitoxantrone-resistant (P-glycoprotein-negative) (Futscher et al., 1994) lines; sensitive and multidrug-resistant colon carcinoma (Noguchi et al., 1979; Dalton et al., 1988); and multidrug-resistant lung carcinoma (P-glycoprotein-negative) (Girard et al., 1973). It also has sensitive (Goldin et al., 1961) and multidrug-resistant (P-glycoprotein-positive) (Salmon and Hersh, 1994) murine L1210 leukemia cells.

L1210 leukemia, Sens = experiment: Cytotoxicity in tumor cell culture, MTT assay; assay type: cell-based, murine; conditions: Mus musculus
Description: as §2

PIE 2-3 sarcoma = conditions: cited from earlier work; for activity against PIE 2-3 sarcoma: 13: over a 10-fold dose range
[11] = system: MCF7 breast, Dox (doxorubicin-resistant); experiment: Cytotoxicity in tumor cell culture, SRB assay; assay type: cell-based, human; conditions: Homo sapiens
Description: as §2

[12] = system: 8226 myeloma, Sens (drug-sensitive); experiment: Cytotoxicity in tumor cell culture, SRB assay; assay type: cell-based, human; conditions: Homo sapiens
Description: as §2

MCF7 breast, Sens = experiment: Cytotoxicity in tumor cell culture, SRB assay; assay type: cell-based, human
Description: as §2

A375 melan = experiment: Cytotoxicity in tumor cell culture, SRB assay; assay type: cell-based, human
Description: as §2

OVCAR3 ovarian = experiment: Cytotoxicity in tumor cell culture, SRB assay; assay type: cell-based, human
Description: as §2

A-549 lung = experiment: Cytotoxicity in tumor cell culture, SRB assay; assay type: cell-based, human
Description: as §2

[13] = system: MCF7 breast, mitox (mitoxantrone-resistant); experiment: Cytotoxicity in tumor cell culture, SRB assay; assay type: cell-based, human; conditions: Homo sapiens
Description: as §2

WiDr colon, Sens = experiment: Cytotoxicity in tumor cell culture, SRB assay; assay type: cell-based
Description: as §2

WiDr colon, res = experiment: Cytotoxicity in tumor cell culture, SRB assay; assay type: cell-based; conditions: Homo sapiens, WiDr, read-out: IC50 against human mouse tumors, WiDr colon res
Description: as §2

[14] = system: 8226 myeloma, Res (imexon-resistant); experiment: Cytotoxicity in tumor cell culture, SRB assay; assay type: cell-based; conditions: Homo sapiens, read-out: IC50 against human mouse tumors, 8226 myeloma Res
Description: as §2

[15] = system: panel of tumor cells in culture; experiment: Panel of tumor cell cultures (all lines of Table 3); assay type: cell-based, human, murine
Description: A set of twenty 2-cyanoaziridine-1-carboxamides was synthesized from 2-cyanoaziridine and appropriate isocyanates. […] It is contemplated that one or more of these 2-cyanoaziridine-1-carboxamides derivatives may be used in combination with a lipid and/or another agent.

fresh human tumor cells = conditions: cited from earlier work
[16] = cited from earlier work
[17] = system: transplanted syngeneic tumors; conditions: rodents; cited from earlier work
[18] = system: human lymphoma, melanoma, and prostate cancer cell lines; conditions: cited from earlier work
leukocytes = conditions: in vivo; cited from earlier work
[19] = 13 2.0 μM (second column of 13)
[20] = L1210, MTT assay, multidrug-resistant, read-out: IC50 against human mouse tumors, L1210 leukemia Mdr
[21] = L1210, MTT assay, read-out: IC50 against human mouse tumors, L1210 leukemia Sens
[22] = MCF7, doxorubicin-resistant, read-out: IC50 against human mouse tumors, MCF7 breast Dox
[23] = drug-sensitive line, read-out: IC50 against human mouse tumors, 8226 myeloma Sens
[24] = Homo sapiens, MCF7; read-out: IC50 against human mouse tumors, MCF7 breast Sens
[25] = Homo sapiens, A-375; read-out: IC50 against human mouse tumors, A375 melan
[26] = Homo sapiens, OVCAR-3; read-out: IC50 against human mouse tumors, OVCAR3 ovarian
[27] = Homo sapiens, A549; read-out: IC50 against human mouse tumors, A-549 lung
[28] = MCF7, mitoxantrone-resistant, read-out: IC50 against human mouse tumors, MCF7 breast mitox
[29] = Homo sapiens, WiDr; read-out: IC50 against human mouse tumors, WiDr colon Sens

N#CC1CN1C(=O)Nc1ccccc1 (centres unmarked) [Compound 13, 2-Cyanoaziridine-1-(N-phenyl)carboxamide]
effectiveness compared with imexon ([1]; 13 at 0.2 μM versus imexon at 1.0 μM): about as effective as imexon | activity and potency compared with imexon in fresh human tumor cells ([1]; listed as N-phenyl derivative): more potent and equally effective to imexon | no. sensitive ([2]; 13 0.2 μM): 0 | no. sensitive [2, 19]: 2 | no. sensitive ([2]; 13 2.0 μM (third column of 13)): 3 | no. sensitive ([3]; 13 0.2 μM): 3/5 | no. sensitive [3, 19]: 8 | no. sensitive ([3]; 13 2.0 μM (third column of 13)): 10 | no. sensitive ([4]; 13 0.2 μM): 2/2 | no. sensitive [4, 19]: 2/2 | no. sensitive ([4]; 13 2.0 μM (third column of 13)): 2/2 | no. sensitive ([5]; 13 0.2 μM): 2 | no. sensitive [5, 19]: 2 | no. sensitive ([5]; 13 2.0 μM (third column of 13)): 3 | no. sensitive ([6]; 13 0.2 μM): 1 | no. sensitive [6, 19]: 1 | no. sensitive ([6]; 13 2.0 μM (third column of 13)): 1 | no. sensitive ([7]; 13 0.2 μM): 3/10 | no. sensitive [7, 19]: 10/11 | no. sensitive ([7]; 13 2.0 μM (third column of 13)): 10 | activity against the sarcoma cells compared with imexon [8]: superior | no. sensitive ([8]; 13 0.2 μM): 2/2 | no. sensitive [8, 19]: 4 | no. sensitive ([8]; 13 2.0 μM (third column of 13)): 5 | no. sensitive ([9]; 13 0.2 μM): 0 | no. sensitive [9, 19]: 1 | no. sensitive ([9]; 13 2.0 μM (third column of 13)): 2 | π [10]: 2.00 | IC50 (L1210 leukemia, Mdr; [20]): 11 µM | IC50 (L1210 leukemia, Sens; [21]): 1.2 µM | activity against PIE 2-3 sarcoma (PIE 2-3 sarcoma): active | IC50 [11, 22]: 2.6 µM | IC50 ([12]; read-out: Log(1/C) (converted)): 5.37 µM | IC50 ([12]; against sensitive myeloma, values repeated from Table 3 (μM there), read-out: IC50): 5.3 µM | IC50 [12, 23]: 5.3 µM | IC50 (MCF7 breast, Sens; [24]): 2.9 µM | IC50 (A375 melan; [25]): 11 µM | IC50 (OVCAR3 ovarian; [26]): 6.8 µM | IC50 (A-549 lung; [27]): 9 µM | IC50 [13, 28]: 4.3 µM | IC50 (WiDr colon, Sens; [29]): 5 µM | IC50 (WiDr colon, res; multidrug-resistant): 12 µM | IC50 ([14]; line made resistant to imexon): 8 µM | melting point: 88 to 90 °C

N=C1NC(=O)N2CC12 (centres unmarked) [Imexon, 4-imino-1,3-diazabicyclo[3.1.0]hexan-2-one]
selectivity among tumor cell types [15]: selective for multiple myeloma | no. sensitive ([2]; Imexon 0.1 μM): 0 | no. sensitive ([2]; Imexon 1.0 μM): 0 | no. sensitive ([2]; Imexon 10 μM): 1 | no. sensitive ([3]; Imexon 0.1 μM): 3/5 | no. sensitive ([3]; Imexon 1.0 μM): 4 | no. sensitive ([3]; Imexon 10 μM): 8 | no. sensitive ([4]; Imexon 0.1 μM): 3 | no. sensitive ([4]; Imexon 1.0 μM): 3 | no. sensitive ([4]; Imexon 10 μM): 3 | no. sensitive ([5]; Imexon 0.1 μM): 0 | no. sensitive ([5]; Imexon 1.0 μM): 2 | no. sensitive ([5]; Imexon 10 μM): 3 | no. sensitive ([6]; Imexon 0.1 μM): 0 | no. sensitive ([6]; Imexon 1.0 μM): 0 | no. sensitive ([6]; Imexon 10 μM): 1 | no. sensitive ([7]; Imexon 0.1 μM): 4 | no. sensitive ([7]; Imexon 1.0 μM): 3/11 | no. sensitive ([7]; Imexon 10 μM): 8 | no. sensitive ([8]; Imexon 0.1 μM): 0/2 | no. sensitive ([8]; Imexon 1.0 μM): 2 | no. sensitive ([8]; Imexon 10 μM): 5 | no. sensitive ([9]; Imexon 0.1 μM): 0 | no. sensitive ([9]; Imexon 1.0 μM): 0 | no. sensitive ([9]; Imexon 10 μM): 2 | cytotoxicity in clonogenic assay (fresh human tumor cells): selectively cytotoxic to multiple myeloma | tolerability ([16]; Phase I): well-tolerated | clinical response ([16]; patients with lung cancer, breast cancer, or liver cancer): objective responses or stabilization of the disease | activity against transplanted syngeneic tumors [17]: active | IC50 (L1210 leukemia, Mdr; [20]): 477 µM | IC50 (L1210 leukemia, Sens; [21]): 612 µM | IC50 [11, 22]: > 18 µM | IC50 [12, 23]: 17 µM | IC50 (MCF7 breast, Sens; [24]): > 18 µM | IC50 (A375 melan; [25]): 324 µM | IC50 (OVCAR3 ovarian; [26]): 640 µM | IC50 (A-549 lung; [27]): > 72 µM | IC50 [13, 28]: > 18 µM | IC50 (WiDr colon, Sens; [29]): > 72 µM | IC50 (WiDr colon, res; multidrug-resistant): > 72 µM | IC50 ([14]; line made resistant to imexon): 115 µM | activity against human tumor cell lines in SCID mice [18]: active

N#CC1CN1C(N)=O (centres unmarked) [Compound 1, 2-cyanoaziridine-1-carboxamide]
π [10]: 0 | IC50 (L1210 leukemia, Mdr; L1210, read-out: IC50 against human mouse tumors, L1210 leukemia Mdr): > 90 µM | IC50 (L1210 leukemia, Sens; L1210, read-out: IC50 against human mouse tumors, L1210 leukemia Sens): > 90 µM | activity against PIE 2-3 sarcoma (PIE 2-3 sarcoma): active | toxicity (PIE 2-3 sarcoma; rat, in vivo): low toxicity | IC50 ([11]; MCF7, read-out: IC50 against human mouse tumors, MCF7 breast Dox): > 54 µM | IC50 [12]: 288 µM | IC50 ([12]; read-out: IC50 against human mouse tumors, 8226 myeloma Sens): 288 µM | IC50 ([12]; read-out: Log(1/C) (converted)): 288 µM | IC50 (MCF7 breast, Sens; Homo sapiens, MCF7, read-out: IC50 against human mouse tumors, MCF7 breast Sens): > 54 µM | IC50 (A375 melan; Homo sapiens, A-375, read-out: IC50 against human mouse tumors, A375 melan): > 90 µM | IC50 (OVCAR3 ovarian; Homo sapiens, OVCAR-3, read-out: IC50 against human mouse tumors, OVCAR3 ovarian): > 90 µM | IC50 (A-549 lung; Homo sapiens, A549, read-out: IC50 against human mouse tumors, A-549 lung): > 280 µM | IC50 ([13]; MCF7, read-out: IC50 against human mouse tumors, MCF7 breast mitox): > 54 µM | IC50 (WiDr colon, Sens; Homo sapiens, WiDr, read-out: IC50 against human mouse tumors, WiDr colon Sens): > 280 µM | IC50 (WiDr colon, res): > 280 µM | IC50 [14]: 432 µM | effect on number of leukocytes (leukocytes): increased the number of leukocytes
